No end group written: not given here.
What was measured:
Format in all cases: cell-based, human
[1] = tested on: lymphocytes from naive donors; test: Proliferation assay, kinetics of lymphocyte activation as summarised in text (presentation mode not stated); settings: summary of five experiments
Protocol: (§1) Proliferation analysis was conducted in three different methods. In all three methods, plates were cultured for 3-5 days under visual control and then 0.5 […]Cu/well of 3[H] (Amersham) was added for additional culture of to 18 h at 37° C. In the last step, plates were harvested and the radioactive counts were measured in a □ counter. • 1. DC indirect presentation: In the first method, 100 µl of 2×10^6 thawed PBL were placed in U-shape Bottom 96 well plate (Nunc) with RPMI medium supplemented with 5% H AB serum, L-Glutamine, Sodium Pyruvate, MEM-EAGLE non-essential amino-acids, HEPES and Gentamycin. At the next stage 100 µl of 25×10^4 peptide-pulsed DC were added to each three wells of PBL and underwent proliferation analysis as described above. • 2. PBL direct presentation: In the 2nd method, 100 µl of 2×10^6 PBL were placed in Flat Bottom 96 well plates (Corning) and stimulated with different concentrations (0.05 ug/ml-2 ug/ml) of peptides. In the next step the cells underwent proliferation analysis as described above. • 3. PBMC direct presentation: In third method PNMC were used under similar conditions as described for the second method.
A different parameter for assessing the properties of ImMucin and the other VXL-peptide epitopes is by analyzing the time until a maximal peak of activity occurs and the optimal dose for maximal stimulation. Maximal peak of PBL activation is determined when <50% of the PBLs appear in clumps. In these experiments, the kinetic (time) in the proliferation of lymphocytes from the six naive donors stimulated at a fix dose of 0.05-1 ug/ml by ImMucin and other VXL-Peptides, was observed.

[2] = tested on: PBLs (CD4+, CD8+, CD45RO+ T cells); test: FACS analysis of T cell phenotype during repeated stimulation with ImMucin (FIG. 2)
Text: Thawed PBLs underwent 1st stimulation with ImMucin pulsed Autologues DC at a ratio of 20:1 and cultured for 7 days in dedicated T cell Medium. T cell medium contained RPMI medium supplemented with 10% FCS, L-Glutamine, Sodium Pyruvate, MEM-EAGLE non-essential amino-acids, HEPES and Gentamycin Sulphate (Bet-Haemek Industries, IL) as well as with 50 IU/ml of recombinant IL-7 (Cytolab IL). For the second stimulation, PBL were transferred to adherent autologues ImMucin-pulsed PBMC and cultured for additional 5 days in T cell Medium. At the end of the 5 days, medium was partial replaced with fresh medium containing 1 ug/ml of ImMucin and 50 IU/ml IL-2 for a third stimulation of 48 h at 37° C. Following the last stimulation ImMucin T cell line was checked for immune activation properties.
For FACS analysis, PBLs were suspended at a final concentration of 20×10^6 and 50 µl were transfer into FACS tube (Falcon) in Blocker solution (PBS with 3% FCS and 0.1% Sodium Azide). 10 µl of fluorochrome-conjugate anti-CD4, anti-CD8, and anti-CD45RO (eBioscience) were added for 30 min on ice at 0° C. in the Dark. After the incubation cell were washed with 2 ml of the blocker solution and re suspended in 0.5 ml of Phosphate buffer saline (PBS). Samples were analyzed in a FACS-sort machine (BD) for positive florescence.
The ability of ImMucin to propagate a subpopulation of CD4^+ and CD8^+ T cells was further analyzed, and in particular the ability of ImMucin to transform naive CD4^+ and CD8^+ T cells into memory cells. This property was evaluated in a FACS analysis measuring the CD45RO^+ marker for memory T cells on CD4^+ and CD8^+ subpopulations (FIG. 2).

[3] = tested on: PBL; test: ELISA of cytokine secretion by PBL stimulated once with peptide-pulsed DC
Protocol: (§2) Human PBMC were separated from buffy coat samples of naive donors using Ficoll UNI-SEPmaxi tube. Separated cells were suspended in RPMI medium supplemented with 10% FCS, L-Glutamine, Sodium Pyruvate, MEM-EAGLE non-essential amino-acids, HEPES and Gentamycin Sulphate (Bet-Haemek Industries, IL) and cultivated for 4 h at 37° C. in a culture dish (Corning 150 mm×25 mm). Adherent cells were collected and cultured for 7 days in serum free DCCM-1 medium supplemented with L-Glutamine, huIL-4 (1000 IU/ml) (Cytolab IL) and GM-CSF-80 ug/ml (Cytolab IL). On day seven floating cells were collected and loaded with 50 ug/ml of examined peptide for 18 h at 37° C.
Cytokine release was studied during the culture of stimulated T-cells. The evaluated samples were collected from the T cell culture medium on day 2, 3, and 5 and stored until use at −20° C.
[…] of the selected capture antibody (e.g. anti-Hu IFN-Gamma, or anti-Hu TNF-alfa or anti IL-2) were added to each well at the final concentration of 5 μg/ml in PBS. Plates were incubated for 2 h at R.T. or over night at 4° C. Next, […] of blocking solution were added for an incubation of 2 h at R.T. […] of evaluated samples were added in duplicate into 2 wells for 2 hours at RT. After 2 h of incubation at R.T plates were washed λ4 times in washing solution. In the next step, a Biotin-conjugated detection antibody (relevant to coated antibody) was added at a final concentration of 10 μg/ml in total volume of 100 μl for 1 h at R.T. Finally, 100 μl/well working dilution (1:10000 in Blocker solution) of Streptavidin-HRP were added to each well and incubated for 1 h at R.T.
Plates were washed λ6 times with PBS-Tween (0.4%) and 100 μl/well of TMB/E Solution (CHEMICON, Catalog #ES001) was added. The plates were then exposed until blue color appeared in the wells of the positive control and no color was detected in the blank wells. To stop the color reaction, 50 μl/well of 10% of Sulfuric acid was added. The plates were counted in ELISA-Reader using a 450 nm filter.

[4] = tested on: PBL; test: Proliferation of PBL, DC indirect presentation (peptide-pulsed autologous DC)
Protocol: as §2, §1
In the first set of experiments, the 21mer ImMucin, its different 9mer epitopes and other control epitopes (Table 3) were evaluated in proliferation assays with the aim of finding their optimal mode of presentation, stimulated dose as well as their peak of activity (time wise).
To evaluate the most efficient method for priming of PBLs with the different peptides, the following methods were compared:
a. In-direct presentation of the peptide via Autologues-pulsed DC
Five experiments were performed according to the protocol described in material and methods with buffy-coat enriched PBLs obtained from six different naive donors (obtained from the Israeli blood bank).

[5] = tested on: PBL; test: Proliferation of PBL, direct presentation of peptide without APC
[6] = peptide DC ratio 16:1, one out of five experiments, six donors
[7] = peptide pulsed DC ratio 16:1, one out of two experiments, two donors (Table 12)
[8] = optimal dose required for PBL activation, average of 5 experiments, six donors

MTPGTQSPFFLLLLLTVLTVV [ImMucin]
peak of proliferation / maximum stimulation [1]: ~96 h
increase in percentage of memory CD45RO+ cells ([2]; ImMucin activation): two fold
percentage of CD8+ T cells ([2]; after repeated stimulation with ImMucin, from 15% before): 36%
percentage of CD4+ T cells ([2]; after repeated stimulation with ImMucin, from 43% before): 85%
IL-2 [3, 6]: 3.62 ng/mL
TNF-Alfa [3, 6]: 11.6 ng/mL
IFN-gamma [3, 7]: 0.5 ng/mL
TNF-Alfa [3, 7]: 11.6 ng/mL
PBL Index of stimulation (SI) via DC ([4]; naive donors, CPM sample / CPM control, representative of 5 experiments): 4
IS (SI of the peptides as indicated in Table 7) ([4]; one out of five experiments, six donors): 4
Optimal dose via DC [4, 8]: 12.5-25 × × 10e6/well
IS (as indicated in Table 12) ([4]; two donors): 2.8
Peak of Proliferation (Hours) via DC ([4]; visual inspection by light microscopy daily during 5 days, average of 5 experiments): 96 h
PBL Index of stimulation (SI) Direct no APC ([5]; average of two healthy donors (Table 11)): 0
Optimal dose Direct no APC [5, 8]: No Influence
Peak of Proliferation (Hours) Direct no APC ([5]; visual inspection daily during 5 days, average of 5 experiments): No proliferation
